From patent publication US9403792B2, “Methods of using pyruvate kinase activators” (AGIOS PHARMACEUTICALS, INC, priority 2011, dated 2016) come the findings set out here.

T2 sequence (P30613 whole entry R510Q): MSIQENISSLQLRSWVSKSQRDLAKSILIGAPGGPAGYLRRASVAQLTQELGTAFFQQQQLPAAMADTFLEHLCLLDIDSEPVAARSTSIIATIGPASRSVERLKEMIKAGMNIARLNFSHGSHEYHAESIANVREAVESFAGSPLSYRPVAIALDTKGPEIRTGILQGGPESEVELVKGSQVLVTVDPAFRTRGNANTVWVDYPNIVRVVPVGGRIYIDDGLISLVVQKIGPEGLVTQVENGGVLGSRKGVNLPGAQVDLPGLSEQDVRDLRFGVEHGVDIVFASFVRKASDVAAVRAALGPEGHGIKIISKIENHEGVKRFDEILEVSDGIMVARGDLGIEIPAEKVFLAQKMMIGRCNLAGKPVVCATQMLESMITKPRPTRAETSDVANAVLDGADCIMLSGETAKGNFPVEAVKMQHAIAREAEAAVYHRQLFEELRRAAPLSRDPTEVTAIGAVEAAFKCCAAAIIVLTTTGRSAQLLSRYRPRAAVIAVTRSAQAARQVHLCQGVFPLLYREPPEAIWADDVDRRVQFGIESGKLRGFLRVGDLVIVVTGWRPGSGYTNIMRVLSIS
Chain of PKR wt (P30613 whole entry): as the sequence (P30613 whole entry R510Q) above, with Q510R counted along it
T3 sequence (P30613 whole entry R532W): as the sequence (P30613 whole entry R510Q) above, with Q510R, R532W counted along it
Chain of PKR R479H (P30613 whole entry R479H): as the sequence (P30613 whole entry R510Q) above, with R479H, Q510R counted along it
Chain of wild type PKR (P30613 whole entry): as the sequence (P30613 whole entry R510Q) above, with Q510R counted along it

One assay concerns the target PKR wt (Homo sapiens, UniProt P30613). Description: PKR WT Single Point Percent Activation Assay. Type of assay: biochemical. As to conditions: compound at 1 μM. As to the method: PKR WT Single Point Percent Activation Assay
(§1) A compound described herein was diluted with DMSO and tested at 1 μM concentration. The enzyme was diluted in 1× Buffer: (100 mM KCl, 50 mM Tris 7.5, 5 mM MgCl2, 1 mM DTT, 0.03% BSA). 2 μL of compound solution was first added into wells, and then 180 μL of enzyme solution was added. Assays were assembled except for ADP, and plates were stored for 60 minutes at RT. 20 μL ADP was added to start the assay and assay output was evaluated using OD340 at SpectraMax. The assay was run at room temperature.
Final Concentration: PKR wt (100 ng/well), Tris pH 7.5 (50 mM), KCl (100 mM), MgCl2 (5 mM), ADP (0.48 mM), PEP (0.15 mM), NADH (180 μM), LDH (0.5 units, Sigma 59023), DTT (1 mM) and BSA (0.03%).
Turning to `Nc1cccc(S(=O)(=O)N2CCCN(S(=O)(=O)c3ccc4c(c3)OCCO4)CC2)c1` [drawing 17], the “% Act. WT” value is “B (a % activation at 1 μM of from 101 to 500)”.
`Nc1cccc(S(=O)(=O)N2CCCN(S(=O)(=O)c3ccc4c(c3)OCCO4)CC2)c1` [drawing 23] displayed an activation at 1 µM of 101 to 500%.
Compound `O=S(=O)(c1ccc2c(c1)OCCO2)N1CCN(S(=O)(=O)c2c(F)cccc2F)CC1` returned an activation at 1 µM of 101 to 500%.
Consider `Nc1cccc(S(=O)(=O)N2CCN(S(=O)(=O)c3c(F)cccc3F)CC2)c1`, for which the activation at 1 µM is 101 to 500%.
`COc1cccc(Cn2ncc3c4sc([S+](C)[O-])cc4n(C)c3c2=O)c1` (stereo not drawn) registered an activation at 1 µM of 1 to 100%.
On the same count and under the same terms, with `CCCCCn1ncc2c3sc(C)cc3n(C)c2c1=O` the figure was 101 to 500%; with `Cn1c2cc([S+](C)[O-])sc2c2cnn(Cc3cccc(O)c3)c(=O)c21` (stereo not drawn), 101 to 500%.

A further assay has as its target PKR R479H (Homo sapiens, UniProt P30613, R479H). Description: PKR Mutant Assay (AC50), PKR R479H. It counts as biochemical.
Details: not given
As to the method: (§2) • PKR or PKR mutant enzyme solution was diluted in assay buffer. 2 μL of test compound was added into wells first, and then 180 μL reaction mix was added. • Reactions mixture with test compound was assembled except for ADP, and plates were stored for 60 minutes at room temperature. • 20 uL ADP was added to start reaction at room temperature and reaction progress was measured as changes in absorbance at 340 nm wavelength at room temperature. Test Compound Preparation: • Test compound stock was made at 100× concentration in 100% DMSO (10 mM) • 1 to 3 dilutions were made for 11 points (i.e. 50 μl of first concentration added to 100 μl 100% DMSO to yield 3.33 mM, 50 μl of this added to 100 μl DMSO to yield 1.11 mM, and so forth) • 1 to 100 dilution into assay (2 μl in 200 μl) yielded starting concentration of 100 μM, decreasing 3 fold for 11 points. Assay Buffer: 100 mM KCl, 50 mM Tris 7.5, 5 mM MgCl2, 1 mM DTT, 0.03% BSA Reaction Mixture: PKR mutant enzyme: 80-400 ng/well; ADP: 0.22-1.65 mM; PEP: 0.1-0.5 mM; NADH: 180 uM; LDH: 0.5 units (Sigma#59023); DTT: 1 mM; BSA: 0.03%.
One may read the AC50 as the midpoint of the concentration-response curve, whichever way the signal moves. Compound `COc1cccc(Cn2ncc3c4sc([S+](C)[O-])cc4n(C)c3c2=O)c1` (stereo not drawn) registered an AC50 of less than 100 nM.
On the same count and under the same terms, the result for `Cn1c2cc([S+](C)[O-])sc2c2cnn(Cc3cccc(O)c3)c(=O)c21` (stereo not drawn) reads less than 100 nM.

A further assay deals with T1, PKR T384W (Homo sapiens, UniProt P30613, T384W). Description: PKR Mutant Assay (AC50), PKR T384W.
T1 sequence (P30613 whole entry T384W): as the sequence (P30613 whole entry R510Q) above, with T384W, Q510R counted along it
Details: not given
Type of assay: biochemical. As to the method: as §2
Regarding `COc1cccc(Cn2ncc3c4sc([S+](C)[O-])cc4n(C)c3c2=O)c1` (stereo not drawn), the AC50 was less than 100 nM.
Turning to `Cn1c2cc([S+](C)[O-])sc2c2cnn(Cc3cccc(O)c3)c(=O)c21` (stereo not drawn), the AC50 is less than 100 nM.

For another assay, the target named is T1, PKR T384W. Description: PKR T384W Single Point Percent Activation Assay. It counts as biochemical. As to conditions: compound at 1 μM. As to the method:
PKR T384W Single Point Percent Activation Assay
A compound described herein was diluted with DMSO and tested at 1 μM concentration. The enzyme was diluted in 1× Buffer: (100 mM KCl, 50 mM Tris 7.5, 5 mM MgCl2, 1 mM DTT, 0.03% BSA). 2 μL of compound solution was first added into wells, and then 180 μL enzyme solution was added. Assays were assembled except for ADP, and plates were stored for 60 minutes at RT. 20 μL ADP was added to start the assay and assay output was evaluated using OD340 at SpectraMax. The assay was run at room temperature.
Final Concentration: PKR T384W soluble (300 ng/well), Tris pH 7.5 (50 mM), KCl (100 mM), MgCl2 (5 mM), ADP (0.08 mM), PEP (0.23 mM), NADH (180 μM), LDH (0.5 units, Sigma 59023), DTT (1 mM) and BSA (0.03%).
`Nc1cccc(S(=O)(=O)N2CCCN(S(=O)(=O)c3ccc4c(c3)OCCO4)CC2)c1` [drawing 17]: the “% Act. T384W” value was “B (a % activation at 1 μM of from 101 to 500)”.

The same assay, now with this note: compound at 1 μM; read-out: % Act. T384W.
As to `Nc1cccc(S(=O)(=O)N2CCCN(S(=O)(=O)c3ccc4c(c3)OCCO4)CC2)c1` [drawing 23], the activation at 1 µM lay in the range of 101 to 500%.
Regarding `O=S(=O)(c1ccc2c(c1)OCCO2)N1CCN(S(=O)(=O)c2c(F)cccc2F)CC1`, the activation at 1 µM lay in the range of 1 to 100%.
Same read-out and setting: the result for `Nc1cccc(S(=O)(=O)N2CCN(S(=O)(=O)c3c(F)cccc3F)CC2)c1` reads 101 to 500%.
With `COc1cccc(Cn2ncc3c4sc([S+](C)[O-])cc4n(C)c3c2=O)c1` (stereo not drawn), the activation at 1 µM was 1 to 100%.
`CCCCCn1ncc2c3sc(C)cc3n(C)c2c1=O`: the activation at 1 µM was in the range of 101 to 500%.
In the case of `Cn1c2cc([S+](C)[O-])sc2c2cnn(Cc3cccc(O)c3)c(=O)c21` (stereo not drawn), the activation at 1 µM was 101 to 500%.

The next assay concerns the target T2, PKR R510Q (Homo sapiens, UniProt P30613, R510Q). Description: PKR R510Q Single Point Percent Activation Assay. Type of assay: biochemical. The note with it: compound at 1 μM. Here is the method:
PKR R510Q Single Point Percent Activation Assay
as §1
Final Concentration: PKR R510Q (40 ng/well), Tris pH 7.5 (50 mM), KCl (100 mM), MgCl2 (5 mM), ADP (0.2 mM), PEP (0.11 mM), NADH (180 μM), LDH (0.5 units, Sigma 59023), DTT (1 mM) and BSA (0.03%).
As for `Nc1cccc(S(=O)(=O)N2CCCN(S(=O)(=O)c3ccc4c(c3)OCCO4)CC2)c1` [drawing 17], the “% Act. R510Q” value is “B (a % activation at 1 μM of from 101 to 500)”.

The same assay, now with this note: compound at 1 μM; read-out: % Act. R510Q.
`Nc1cccc(S(=O)(=O)N2CCCN(S(=O)(=O)c3ccc4c(c3)OCCO4)CC2)c1` [drawing 23]: the activation at 1 µM lay in the range of 101 to 500%.
As for `O=S(=O)(c1ccc2c(c1)OCCO2)N1CCN(S(=O)(=O)c2c(F)cccc2F)CC1`, the activation at 1 µM lay within 101 to 500%.
`Nc1cccc(S(=O)(=O)N2CCN(S(=O)(=O)c3c(F)cccc3F)CC2)c1`: the activation at 1 µM was 101 to 500%.
In the case of `COc1cccc(Cn2ncc3c4sc([S+](C)[O-])cc4n(C)c3c2=O)c1` (stereo not drawn), the activation at 1 µM lay in the range of 101 to 500%.
`CCCCCn1ncc2c3sc(C)cc3n(C)c2c1=O`: the activation at 1 µM lay in the range of 101 to 500%.
On to `Cn1c2cc([S+](C)[O-])sc2c2cnn(Cc3cccc(O)c3)c(=O)c21` (stereo not drawn), for which the activation at 1 µM was 101 to 500%.

The target of another assay is wild type PKR (Homo sapiens, UniProt P30613). Briefly: PKR Mutant Assay (AC50), wild type PKR. Type of assay: biochemical. As to conditions: read-out: PKR WT AC50. As to the method:
as §2
`COc1cccc(Cn2ncc3c4sc([S+](C)[O-])cc4n(C)c3c2=O)c1` (stereo not drawn): the AC50 was less than 100 nM.
In the case of `Cn1c2cc([S+](C)[O-])sc2c2cnn(Cc3cccc(O)c3)c(=O)c21` (stereo not drawn), the AC50 is less than 100 nM.

For another assay, the target named is T2, PKR R510Q. Description: PKR Mutant Assay (AC50), PKR R510Q. It counts as biochemical.
Details: not given
Here is the method: as §2
With `COc1cccc(Cn2ncc3c4sc([S+](C)[O-])cc4n(C)c3c2=O)c1` (stereo not drawn), the AC50 is less than 100 nM.
`Cn1c2cc([S+](C)[O-])sc2c2cnn(Cc3cccc(O)c3)c(=O)c21` (stereo not drawn): the AC50 was less than 100 nM.

The target of a further assay is PKR G364D (Homo sapiens, UniProt P30613, G364D). Briefly: PKR Mutant Assay (AC50), PKR G364D. It counts as biochemical.
Chain of PKR G364D (P30613 whole entry G364D): as the sequence (P30613 whole entry R510Q) above, with G364D, Q510R counted along it
Details: not given
As to the method: as §2
For `COc1cccc(Cn2ncc3c4sc([S+](C)[O-])cc4n(C)c3c2=O)c1` (stereo not drawn), the AC50 is less than 100 nM.
`Cn1c2cc([S+](C)[O-])sc2c2cnn(Cc3cccc(O)c3)c(=O)c21` (stereo not drawn) registered an AC50 of less than 100 nM.

The next assay addresses T3, PKR R532W (Homo sapiens, UniProt P30613, R532W). Description: PKR Mutant Assay (AC50), PKR R532W. Type of assay: biochemical.
Details: not given
As to the method: as §2
Take `COc1cccc(Cn2ncc3c4sc([S+](C)[O-])cc4n(C)c3c2=O)c1` (stereo not drawn): the AC50 is less than 100 nM.
`Cn1c2cc([S+](C)[O-])sc2c2cnn(Cc3cccc(O)c3)c(=O)c21` (stereo not drawn) yielded an AC50 of less than 100 nM.

In the next assay the target is PKR G332S (Homo sapiens, UniProt P30613, G332S). Briefly: PKR Mutant Assay (AC50), PKR G332S.
Chain of PKR G332S (P30613 whole entry G332S): as the sequence (P30613 whole entry R510Q) above, with G332S, Q510R counted along it
Details: not given
Type of assay: biochemical. Here is the method: as §2
Consider `COc1cccc(Cn2ncc3c4sc([S+](C)[O-])cc4n(C)c3c2=O)c1` (stereo not drawn), for which the AC50 is less than 100 nM.
As for `Cn1c2cc([S+](C)[O-])sc2c2cnn(Cc3cccc(O)c3)c(=O)c21` (stereo not drawn), the AC50 was less than 100 nM.

The target of a further assay is T3, PKR R532W. Description: PKR R532W Single Point Percent Activation Assay. Type of assay: biochemical. As to conditions: compound at 1 μM. Here is the method: PKR R532W Single Point Percent Activation Assay
as §1
Final Concentration: PKR R532W (100 ng/well), Tris pH 7.5 (50 mM), KCl (100 mM), MgCl2 (5 mM), ADP (0.36 mM), PEP (0.1 mM), NADH (180 μM), LDH (0.5 units, Sigma 59023), DTT (1 mM) and BSA (0.03%).
On to `Nc1cccc(S(=O)(=O)N2CCCN(S(=O)(=O)c3ccc4c(c3)OCCO4)CC2)c1` [drawing 17], for which the “% Act. R532W” value was “A (a % activation at 1 μM of from 1 to 100)”.
On the same count and under the same terms, with `Nc1cccc(S(=O)(=O)N2CCCN(S(=O)(=O)c3ccc4c(c3)OCCO4)CC2)c1` [drawing 23] the entry was “B (a % activation at 1 μM of from 101 to 500)”.

Still in this assay, the particulars now being: compound at 1 μM; read-out: % Act. R532W.
In the case of `O=S(=O)(c1ccc2c(c1)OCCO2)N1CCN(S(=O)(=O)c2c(F)cccc2F)CC1`, the activation at 1 µM was in the range of 1 to 100%.
In the case of `Nc1cccc(S(=O)(=O)N2CCN(S(=O)(=O)c3c(F)cccc3F)CC2)c1`, the activation at 1 µM lay within 101 to 500%.
As for `COc1cccc(Cn2ncc3c4sc([S+](C)[O-])cc4n(C)c3c2=O)c1` (stereo not drawn), the activation at 1 µM is 101 to 500%.
Still for that read-out and setting: the result for `CCCCCn1ncc2c3sc(C)cc3n(C)c2c1=O` reads 101 to 500%; that for `Cn1c2cc([S+](C)[O-])sc2c2cnn(Cc3cccc(O)c3)c(=O)c21` (stereo not drawn), 101 to 500%.
